# Measured values: patent US20130310256A1, “HERBICIDAL COMPOSITIONS COMPRISING 4-AMINO-3-CHLORO-5-FLUORO-6-(4-CHLORO-2-FLUORO-3-METHOXYPHENYL) PYRIDINE-2-CARBOXYLIC ACID OR A DERIVATIVE THEREOF AND VLCFA AND LIPID SYNTHESIS INHIBITING HERBICIDES” (DOW AGROSCIENCES LLC, priority 2008, published 2013)
# Where “and” joins values, the source holds several entries; their conditions need not be identical. Equal entries are not always repeated.
# How the values were obtained:
# CYPIR = assay: Example I: postemergence foliar-applied weed control, greenhouse; type: in vivo, Cyperus iria L. (rice flatsedge)
# Method in brief: (§1)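 Plants grown in loam/sandy loam–calcareous grit soil (80:20) in greenhouse, 14 hr photoperiod, about 29° C. day/26° C. night, treated postemergence at first to fourth true leaf stage. Foliar spray at 187 L/ha with 1.25% (v/v) crop oil concentrate; Compound A dosed on acid equivalent basis, partners on active ingredient basis.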
# LEFCH = assay: as above; type: in vivo, Leptochloa chinensis (L.) Nees (Chinese sprangletop); conditions: for Visual Weed Control (%) - 21 DAA LEFCH Obs / Visual Weed Control (%) - 22 DAA LEFCH Obs / Visual Weed Control (%) - 19 DAA LEFCH Obs: foliar
# Method in brief: as §1
compound,measurement,setting,value
"CCS(=O)(=O)Oc1ccc2c(c1)C(C)(C)CO2 [Benfuresate, 2,3-dihydro-3,3-dimethyl-5-benzofuranyl ethanesulfonate]",Visual Weed Control (%) - 22 DAA CYPIR Obs,"CYPIR; 150 gai/ha, foliar",0%
same,Visual Weed Control (%) - 22 DAA CYPIR Obs,"CYPIR; 300 gai/ha, foliar",10%
same,Visual Weed Control (%) - 21 DAA LEFCH Obs,LEFCH; 75 gai/ha,0%
same,Visual Weed Control (%) - 21 DAA LEFCH Obs,LEFCH; 150 gai/ha,10%
same,Visual Weed Control (%) - 21 DAA LEFCH Obs,LEFCH; 300 gai/ha,10%
same,Visual Weed Control (%) - 22 DAA LEFCH Obs,LEFCH; 300 gai/ha,10%
"CCN(CC)C(=O)n1cnc(S(=O)(=O)c2c(C)cc(C)cc2C)n1 [Cafenstrole, N,N-diethyl-3-[(2,4,6-trimethylphenyl)sulfonyl]-1H-1,2,4-triazole-1-carboxamide]",Visual Weed Control Obs,"CYPIR; 21 DAA, 26.25 gai/ha Lapost Flowable",0%
same,Visual Weed Control Obs,"CYPIR; 21 DAA, 52.5 gai/ha Lapost Flowable",0%
same,Visual Weed Control Obs,"CYPIR; 21 DAA, 105 gai/ha Lapost Flowable",0%
same,Visual Weed Control Obs,"LEFCH; 20 DAA, 26.25 gai/ha Himeadow WP",0%
same,Visual Weed Control Obs,"LEFCH; 20 DAA, 52.5 gai/ha Himeadow WP",0%
same,Visual Weed Control Obs,"LEFCH; 20 DAA, 105 gai/ha Himeadow WP",0%
same,Visual Weed Control Obs,"LEFCH; 21 DAA, 210 gai/ha Lapost Flowable",23%
"COc1c(Cl)ccc(-c2nc(C(=O)O)c(Cl)c(N)c2F)c1F [Compound A Acid, 4-amino-3-chloro-6-(4-chloro-2-fluoro-3-methoxyphenyl)-5-fluoropyridine-2-carboxylic acid]",Visual Weed Control (%) - 22 DAA CYPIR Obs,"CYPIR; 5.3 gae/ha, foliar",60%
same,Visual Weed Control Obs,"CYPIR; 20 DAA, 4.38 gae/ha",40%
same,Visual Weed Control Obs,"CYPIR; 21 DAA, 4.38 gae/ha",70%
same,Visual Weed Control (%) - 22 DAA LEFCH Obs,LEFCH; 10.6 gae/ha,10%
same,Visual Weed Control Obs,"LEFCH; 20 DAA, 17.5 gae/ha",30% and 50%
same,Visual Weed Control Obs,"LEFCH; 21 DAA, 17.5 gae/ha",20%
same,Visual Weed Control Obs,"LEFCH; 21 DAA, 35 gae/ha",45%
same,Visual Weed Control (%) - 22 DAA LEFCH Obs,LEFCH; 21.2 gae/ha,10%
"COc1c(Cl)ccc(-c2nc(C(=O)OCc3ccccc3)c(Cl)c(N)c2F)c1F [Compound A Benzyl Ester, benzyl ester of 4-amino-3-chloro-5-fluoro-6-(4-chloro-2-fluoro-3-methoxy-phenyl)pyridine-2-carboxylic acid]",Visual Weed Control (%) - 21 DAA CYPIR Obs,"CYPIR; 8 gae/ha, foliar",30%
same,Visual Weed Control (%) - 22 DAA CYPIR Obs,"CYPIR; 16 gae/ha, foliar",60%
same,Visual Weed Control Obs,"CYPIR; 20 DAA, 4.38 gae/ha",80%
same,Visual Weed Control (%) - 21 DAA LEFCH Obs,LEFCH; 5.3 gae/ha,0%
same,Visual Weed Control (%) - 21 DAA LEFCH Obs,LEFCH; 8 gae/ha,20%
same,Visual Weed Control (%) - 22 DAA LEFCH Obs,LEFCH; 8 gae/ha,35%
same,Visual Weed Control (%) - 21 DAA LEFCH Obs,LEFCH; 10.6 gae/ha,20%
same,Visual Weed Control (%) - 19 DAA LEFCH Obs,LEFCH; 16 gae/ha,45%
same,Visual Weed Control (%) - 22 DAA LEFCH Obs,LEFCH; 16 gae/ha,40%
same,Visual Weed Control Obs,"LEFCH; 20 DAA, 17.5 gae/ha",50% and 25%
same,Visual Weed Control (%) - 21 DAA LEFCH Obs,LEFCH; 21.2 gae/ha,35%
same,Visual Weed Control (%) - 19 DAA LEFCH Obs,LEFCH; 32 gae/ha,50%
"CCCOCCN(C(=O)CCl)c1c(CC)cccc1CC [Pretilachlor, 2-chloro-N-(2,6-diethylphenyl)-N-(2-propoxyethyl)acetamide]",Visual Weed Control Obs,"CYPIR; 20 DAA, 37.5 gai/ha",0%
same,Visual Weed Control Obs,"CYPIR; 20 DAA, 75 gai/ha",0%
same,Visual Weed Control Obs,"CYPIR; 20 DAA, 150 gai/ha",0%
